Measured values: patent publication US20040022842A1, “Liposome preparations containing oxaliplatin” (Mebiopharm Co., Ltd., priority 2002, published 2004)

System: Colon 26 cells
Assay: Cytotoxicity of oxaliplatin (L-OHP) liposomes against tumor cells, WST-1 assay (Example 7), Colon 26
Format: cell-based
Conditions: Colon 26 and AsPC-1 cells; comparison of L-OHP solution and liposome preparations
Experimental: Colon 26 cells and AsPC-1 cells were inoculated on a 96-well plate at 5×10^3 cells per well and pre-incubated with 5% CO2 overnight.
The cells were incubated at 37° C. under 5% CO2 for 4 hours. The test solutions were removed, and the incubation was continued for an additional 2 days, at which time the number of living cells was counted. Cell viability was determined according to the WST-1 assay.
According to the WST-1 assay, the assay solution contained 5 mmol/L WST-1 reagent (10 μL); 20 mmol/L HEPES; 1-methoxy-PMS at 0.2 mmol/L, at pH 7.4. This solution was added to each well, mixed thoroughly, and incubated in a CO2 incubator for 2 hours to allow for color development. The absorbance was then measured on a plate reader at 400-450 nm, with a reference wavelength of >600 nm.

Structure (SMILES): O=C1[O][Pt]2([NH]C3CCCCC3[NH]2)[O]C1=O [L-OHP solution, Oxaliplatin]
- relative cytotoxicity in words: showed the highest toxicity
